Measured values taken from patent US20260200928A1, “THERAPEUTIC COMPOUNDS” (Sanofi, priority 2022, published 2026).
Structures can show the parent of a compound that is named as a salt.

Target: T1, human IL-17A (Homo sapiens, UniProt Q16552)
T1 construct: purchased R&D Systems 7955-IL/CF
T1 sequence (Q16552 24-155): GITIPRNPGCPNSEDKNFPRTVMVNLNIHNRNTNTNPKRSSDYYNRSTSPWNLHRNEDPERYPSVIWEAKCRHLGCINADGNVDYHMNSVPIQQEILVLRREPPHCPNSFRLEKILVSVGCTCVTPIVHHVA
Experiment: IL-17A AlphaLISA competition assay (block of IL-17A binding to its receptor IL-17RA)
Details: mean IC50 (n≥2), block of IL-17A binding to IL-17RA
Protocol: The ability of the compounds to block binding of IL-17A to its receptor, IL-17RA, was analysed in a competition assay using AlphaLISA technology (Perkin Elmer). The assay is a bead based AlphaLISA where the IL-17RA is captured on the acceptor bead via an Fc tag and IL-17A is captured on the streptavidin donor bead via a biotinylated anti-IL17A antibody.
Assay buffer was prepared by adding 0.05% Tween-20 (v/v) and 0.1% BSA to Phosphate Buffered Saline (PBS). The assay was carried out in 384-well white low volume plates (Perkin Elmer #6008359). 10 μL of a 7.5 nM stock of human recombinant IL-17A (R&D Systems 7955-IL/CF) diluted in assay buffer was dispensed into the assay plate and compounds or DMSO vehicle control were added in a volume of 75 nL using an acoustic dispenser (Beckman). The compounds were pre-incubated with the IL-17A for 30 min at room temperature prior to addition of 5 μL of a 5 nM stock of human recombinant IL-17RA/Fc chimera (R&D Systems 177-IR-100) diluted in assay buffer. The IL-17A was incubated with the receptor for a further 90 minutes at room temperature before addition of 5 μL of a mixture of anti-human Fc IgG acceptor beads (75 μg/mL, Perkin Elmer AL1030) and anti-IL-17A biotin conjugated antibody (5 nM, Abcam, #ab155575) in assay buffer. After a further 30 min incubation at room temperature, 5 μL of streptavidin donor beads (75 μg/mL, Perkin Elmer 6760002S) were added and the plate was incubated for 3 h in the dark.
The AlphaLisa signal was measured using the PheraSTAR plate reader (BMG). Data were analysed using GeneData Screener and fitted to a 4-parameter logistic equation. The IC50 values were calculated using the DMSO vehicle as the negative control and a high concentration (4 μM) of a reference IL-17A inhibitor as the positive control. All compounds were analysed at least in duplicate (n≥2).

| Compound | IC50 [µM] |
| --- | --- |
| O=C(N[C@H](C(=O)Nc1cc(C(C2CC2)N2C[C@@H](C(F)(F)F)NC2=O)ccn1)C1CCC(F)(F)CC1)c1nonc1C1CC1 (single isomer, unassigned) [Example 163, 4-Cyclopropyl-N-((S)-2-((4-((R or S)-cyclopropyl((S)-2-oxo-4-(trifluoromethyl)imidazolidin-1-yl)methyl)pyridin-2-yl)amino)-1-(4,4-difluorocyclohexyl)-2-oxoethyl)-1,2,5-oxadiazole-3-carboxamide] | 0.02 |
| COC[C@H](c1ccnc(NC(=O)C(NC(=O)c2nonc2C2CC2)C2CCC(F)CC2)c1)N1C[C@@H](C(F)(F)F)NC1=O (single isomer, unassigned) [Example 277] | 0.044 |
| C[C@H]1CC[C@H]([C@H](NC(=O)c2nonc2C2CC2)C(=O)Nc2cc(C(CO)N3C[C@@H](C(F)(F)F)NC3=O)ccn2)CC1 (single isomer, unassigned) [Example 233, 4-Cyclopropyl-N-((1S)-2-((4-((R or S)-2-hydroxy-1-((S)-2-oxo-4-(trifluoro-methyl)imidazolidin-1-yl)ethyl)pyridin-2-yl)amino)-1-((1r,4S)-4-methylcyclohexyl)-2-oxoethyl)-1,2,5-oxadiazole-3-carboxamide] | 0.009 |
| COCC(c1ccnc(NC(=O)[C@@H](NC(=O)c2ccnn2C(C)C)[C@H]2CC[C@H](C)CC2)c1)N1C[C@@H](C(F)(F)F)NC1=O (single isomer, unassigned) [Example 78] | 0.069 |
| COC[C@H](c1ccnc(NC(=O)C(NC(=O)c2nonc2C2CC2)C2CCC(F)CC2)c1)N1C[C@@H](C(F)(F)F)NC1=O (single isomer, unassigned) [Example 278] | 1.89 |
| CC(C)(C)OC(=O)N[C@H](C(=O)Nc1cc(C(NC(=O)CCC(F)(F)F)C2CC2)ccn1)[C@H]1CC[C@H](C)CC1 (single isomer, unassigned; diastereomer 1) [Example 71] | 0.197 |
| COC[C@H](c1ccnc(NC(=O)C(NC(=O)c2ccnn2C(C)C)C2CCC(F)CC2)c1)N1C[C@@H](C(F)(F)F)NC1=O (single isomer, unassigned) [Example 289] | 0.125 |
| NCC1(c2nocc2C(=O)N[C@H](C(=O)Nc2cc(CN3C[C@@H](C(F)(F)F)NC3=O)ccn2)C2CCC(F)(F)CC2)CC1 [Example 22, 3-(1-(Aminomethyl)cyclopropyl)-N—((S)-1-(4,4-difluorocyclohexyl)-2-oxo-2-((4-(((S)-2-oxo-4-(trifluoromethyl)imidazolidin-1-yl)methyl)pyridin-2-yl)amino)ethyl)isoxazole-4-carboxamide HCl salt] | 9.23 |
| COCC(c1ccnc(NC(=O)[C@@H](NC(=O)c2nonc2C2CC2)C2CCC(F)(F)CC2)c1)[C@H]1C[C@@H](C(F)(F)F)NC1=O (single isomer, unassigned) [Example 185, 4-Cyclopropyl-N-((1S)-1-(4,4-difluorocyclohexyl)-2-((4-((R or S)-2-methoxy-1-((3R,5S)-2-oxo-5-(trifluoromethyl)pyrrolidin-3-yl)ethyl)pyridin-2-yl)amino)-2-oxoethyl)-1,2,5-oxadiazole-3-carboxamide] | 0.046 |
| CCc1nocc1C(=O)N[C@H](C(=O)Nc1cc(C(NC(=O)CCC(F)(F)F)C2CC2)ccn1)C1CCC(F)(F)CC1 (stereo partly drawn) [Example 161, N-((1S)-2-((4-(cyclopropyl(4,4,4-trifluorobutanamido)methyl)pyridin-2-yl)amino)-1-(4,4-difluorocyclohexyl)-2-oxoethyl)-3-ethylisoxazole-4-carboxamide] | 0.615 |
| CCc1oncc1C(=O)NC(C(=O)Nc1cc([C@@H](COC)N2CC(F)(F)CNC2=O)ccn1)C1CCC(F)(F)CC1 (stereo in doubt) [Example 176, N—((S)-2-((4-((S)-1-(5,5-difluoro-2-oxotetrahydropyrimidin-1(2H)-yl)-2-methoxyethyl)pyridin-2-yl)amino)-1-(4,4-difluorocyclohexyl)-2-oxoethyl)-5-ethylisoxazole-4-carboxamide] | 0.057 |
| CC(C)n1ccnc1C(=O)N[C@H](C(=O)Nc1cc(C(NC(=O)CCC(F)(F)F)C2CC2)ccn1)C1CCC(F)(F)CC1 (stereo partly drawn) [Example 117, N-((1S)-2-((4-(cyclopropyl(4,4,4-trifluorobutanamido)methyl)pyridin-2-yl)amino)-1-(4,4-difluorocyclohexyl)-2-oxoethyl)-1-isopropyl-1H-imidazole-2-carboxamide] | 0.723 |
| COCC(NC(=O)CCC(F)(F)F)c1ccnc(NC(=O)C(NC(=O)c2nonc2C2CC2)C2CCC(C)CC2)c1 [Example 243, 4-cyclopropyl-N-((1S)-2-((4-(2-methoxy-1-(4,4,4-trifluorobutanamido)ethyl)pyridin-2-yl)amino)-1-((1r,4S)-4-methylcyclohexyl)-2-oxoethyl)-1,2,5-oxadiazole-3-carboxamide] | 0.038 |
| CCc1nonc1C(=O)NC(C(=O)Nc1cc(C(CC)NC(=O)CCC(F)(F)F)ccn1)C1CCC(F)(F)CC1 (stereo in doubt) [Example 207, N-((1S)-1-(4,4-difluorocyclohexyl)-2-oxo-2-((4-(1-(4,4,4-trifluorobutan-amido)propyl)pyridin-2-yl)amino)ethyl)-4-ethyl-1,2,5-oxadiazole-3-carboxamide] | 0.35 |
| Cn1nccc1C(=O)N[C@H](C(=O)Nc1cc(OC2CCNC2=O)ccn1)[C@H]1CC[C@H](C)CC1 (stereo partly drawn) [Example 118, 1-methyl-N-((1S)-1-((1r,4S)-4-methylcyclohexyl)-2-oxo-2-((4-((2-oxopyrrolidin-3-yl)oxy)pyridin-2-yl)amino)ethyl)-1H-pyrazole-5-carboxamide] | 8.97 |
| N-((1S)-1-(4-chlorocyclohexyl)-2-((4-((S)-2-methoxy-1-((S)-2-oxo-4-(trifluoromethyl)imidazolidin-1-yl)ethyl)pyridin-2-yl)amino)-2-oxoethyl)-1-methyl-1H-pyrazole-5-carboxamide [Example 311] | 0.096 |
| CCc1ncoc1C(=O)NC(C(=O)Nc1cc(C[C@H]2C[C@@H](C(F)(F)F)NC2=O)ccn1)C1CCC(F)(F)CC1 (stereo in doubt) [Example 217, N—((S)-1-(4,4-difluorocyclohexyl)-2-oxo-2-((4-(((3S,5S)-2-oxo-5-(trifluoro-methyl)pyrrolidin-3-yl)methyl)pyridin-2-yl)amino)ethyl)-4-ethyloxazole-5-carboxamide] | 0.465 |
| CC(C)n1nccc1C(=O)N[C@@H](C(=O)Nc1cc(CN2C[C@H](C(F)(F)F)NC2=O)ccn1)[C@H]1CC[C@H](C)CC1 [Example 4, 1-isopropyl-N—((S)-1-((1r,4S)-4-methylcyclohexyl)-2-oxo-2-((4-(((S)-2-oxo-4-(trifluoromethyl)imidazolidin-1-yl)methyl)pyridin-2-yl)amino)ethyl)-1H-pyrazole-5-carboxamide] | 0.035 |
| CC(C)n1nccc1C(=O)N[C@H](C(=O)Nc1cc(C[C@H]2C[C@@H](C(F)(F)F)NC2=O)ccn1)[C@H]1CC[C@H](C)CC1 [Example 156, 1-isopropyl-N—((S)-1-((1r,4S)-4-methylcyclohexyl)-2-oxo-2-((4-(((3S,5S)-2-oxo-5-(trifluoromethyl)pyrrolidin-3-yl)methyl)pyridin-2-yl)amino)ethyl)-1H-pyrazole-5-carboxamide] | 0.053 |
